The text below walks through data of publication PMC11487632 (Molecular Pharmaceutics, 2024).

A word on the solubility: it is the dissolved amount per volume that the medium holds. The log P is a log measure of how a compound divides between an organic and an aqueous phase. For orientation: pKa means the negative logarithm of the acid dissociation constant.

The conditions of data set [1]: cited from earlier work.
Data set [2] can be described thus: Pre-dissolution procedure: apparent solubility of pure APIs in buffer with predissolved XAT derivatives (HPLC, Noyes-Whitney fit). In kind it is physicochemical. To be noted: for effect of predissolved TPH on API solubility: 5-20 mM TPH in 100 mM phosphate buffer pH 6.8; for effect of predissolved CFN on API solubility: 10-50 mM CFN in 100 mM phosphate buffer pH 6.8; for solubility: phosphate buffer, 25 °C, pH 6.8, aqueous buffer, thermodynamic from solid, read-out: solubility (eq 1); for solubility / saturated concentration (curve fitting eq 1): 100 mM phosphate buffer pH 6.8, 298 K. The protocol: The sample solution was filtered with a membrane filter (Minisart RC 4 with 0.22 μm pore size; Sartorius, Göttingen, Germany). The fractionation of the API or XAT derivative in the filtrate was performed via HPLC (Shimadzu Co., Kyoto, Japan) using a mobile phase of 25 mM citric acid buffer (pH 3.0):methanol of 3:7 at a flow rate of 1 mL/min.
To assess the apparent solubility of pure APIs in solutions of XAT derivatives, “pre-dissolution procedures” were conducted. […] The API samples, adjusted to exceed saturation, were added to 5 mL of the dissolving medium and shaken in a water bath at 298 K for a specific duration. The concentration of API in the supernatant was measured using HPLC. The solubility concentrations of all APIs were determined from each API’s standard curves. The R-square values of all standard curves are over 0.995.
The dissolution process of the pure APIs or API mixtures assumably corresponded to a linear correlation or a saturation curve. The API samples were homogenized using an agate mortar and pestle to align the particle sizes without sieving, considering the potential contamination of superfine powders. The immediate dissolution of the adhering powders in the solution at t = 0 was assumed; additionally, their concentrations were treated as the initial concentration (C = C0) if a sink condition was applicable owing to the higher solubility of the API.
For curves resembling a saturation curve, nonlinear curve fitting using the Noyes–Whitney integral expression (eq 1) was applied:[48],[49] [drawing 1] 1 where Ceq is the apparent solubility of the API, k is the dissolution rate constant, and S is the surface area of the sample particles. […] Curve-fitting procedures employed the Solver module of Microsoft Excel 2016 with the implemented GRG nonlinear option. The recrystallized precipitates were verified by X-ray powder diffraction (XRPD) and differential scanning calorimetry (DSC); no cocrystals or other generated solids were observed.

Data set [3] can be described thus: Co-dissolution procedure: apparent solubility of API mixtures with CFN, TPH, TBR or XAT (HPLC, Noyes-Whitney fit). In kind it is physicochemical. To be noted: for effect of codissolved CFN on API solubility / saturated concentration / effect of codissolved TBR on API dissolution curve / saturated concentration / effect of codissolved TPH on API solubility / saturated concentration / effect of codissolved XAT on API dissolution curve / saturated concentration: equimolar mixture; for increase of XAT-derivative solubility by IBP and DCF (NSAIDs): equimolar IBP or DCF mixtures.

For data set [4] the following is noted: cited from earlier work. This is another data set of the same source.
Details of data set [5]: method as in previous study. To be noted: ref previous study, cited from earlier work; for solubility during the predissolution procedure: presence or absence of cimetidine (CIM) in solution insignificant; for solubility during the codissolution procedure: simultaneous addition of CIM crystal powder.
The conditions of data set [6]: ref 18 (given for CFN and TPH only); cited from earlier work.
The conditions of data set [7]: ref 18 (given for CFN and TPH only); cited from earlier work. The source holds these as a separate data set.
For data set [8] the following is noted: ref 18 (not printed for TBR and XAT); cited from earlier work.

≈ marks a conversion by molar mass, not a printed value. Like-named read-outs stand apart in the source and are kept apart here.

For `Cn1c(=O)c2c(ncn2C)n(C)c1=O` [CFN, caffeine], the “distribution volume Vd” value in data set [1] (CFN) is on record as 0.7 L/kg.

Regarding `O=C(O)Cc1ccccc1Nc1c(Cl)cccc1Cl` [DCF, diclofenac], in data set [2], the “effect of predissolved TPH on API solubility” value was “enhanced” and the “effect of predissolved CFN on API solubility” value is on record as “enhanced”. The solubility in data set [2] (in the absence of CFN (CFN series)) came to 1760 ± 44 µM (≈ 521 µg/mL). The solubility in data set [2] (in the absence of TPH (TPH series)) came out at 1690 ± 53 µM (≈ 499 µg/mL). In addition, in data set [3] (100 mM phosphate buffer pH 6.8), the “effect of codissolved CFN on API solubility / saturated concentration” value is reported as “increased”, the “effect of codissolved TBR on API dissolution curve / saturated concentration” value is “did not significantly differ”, the “effect of codissolved TPH on API solubility / saturated concentration” value is on record as “increased” and the “effect of codissolved XAT on API dissolution curve / saturated concentration” value is “did not significantly differ”. Moreover, the solubility in data set [4] (50 mM MES buffer (pH 5.5)) was approximately 100 µM (≈ 29.6 µg/mL). Moreover, in data set [4] (100 mM phosphate buffer (pH 6.45)), the solubility entry is given as “approximately 0.7 mM”. Besides, in data set [4] (within the buffering capacity range), the “change of solubility on addition of 10 mM LDC to the dissolution buffer” value was “increased”. In addition, in data set [5] (equilibrated solution, FAM delayed dissolution), the “effect of famotidine (FAM) on final solubility” value was “not affected”. Moreover, in data set [5], the “solubility during the predissolution procedure” value is 829 µM (≈ 246 µg/mL) and the “solubility during the codissolution procedure” value was 3390 µM (≈ 1000 µg/mL).

`CC(C)Cc1ccc([C@H](C)C(=O)O)cc1` [IBP, (S)-(+)-ibuprofen]: in data set [2], the “effect of predissolved TPH on API solubility” value is on record as “did not influence” and the “effect of predissolved CFN on API solubility” value is reported as “did not influence”. Besides, the “saturated concentration (curve fitting eq 1)” value in data set [2] (predissolved CFN series, irrespective of CFN) is recorded as 17.22 ± 0.61 mM. Further, the “saturated concentration (curve fitting eq 1)” value in data set [2] (predissolved TPH series, irrespective of TPH) is reported as 17.34 ± 0.86 mM. For the same compound, in data set [3] (100 mM phosphate buffer pH 6.8), the “effect of codissolved CFN on API solubility / saturated concentration” value is reported as “decreased”, the “effect of codissolved TBR on API dissolution curve / saturated concentration” value is given as “did not significantly affect”, the “effect of codissolved TPH on API solubility / saturated concentration” value was “decreased” and the “effect of codissolved XAT on API dissolution curve / saturated concentration” value is on record as “did not significantly affect”. For the same compound, the solubility in data set [4] (25 mM phosphate buffer (pH 6.88)) is approximately 20000 µM (≈ 4130 µg/mL). Also, in data set [4] (100 mM phosphate buffer (pH 7.18)), the solubility entry is on record as “approximately 40 mM”. In addition, in data set [4] (mixtures with LDC, without pH fluctuations), the “change of solubility in mixtures with lidocaine (LDC)” value is “reduced”.

Take `COc1ccc2c(c1)c(CC(=O)O)c(C)n2C(=O)c1ccc(Cl)cc1` [INM, indomethacin]: the “effect of CFN added to the dissolving medium on solubility” value in data set [2] (data not published) was “enhanced”. Also, in data set [5], the “solubility during the predissolution procedure” value was 625 µM (≈ 224 µg/mL) and the “solubility during the codissolution procedure” value was 3340 µM (≈ 1200 µg/mL).

On to `Cn1cnc2c1c(=O)[nH]c(=O)n2C` [TBR, theobromine], for which the solubility in data set [3] (25 °C, aqueous buffer, thermodynamic from solid, pure, 100 mM phosphate buffer pH 6.8, read-out: solubility of the pure XAT derivative) is 1000 µM (≈ 180 µg/mL). The “increase of XAT-derivative solubility by IBP and DCF (NSAIDs)” value in data set [3] is given as 3 fold. The water solubility in data set [6] was 2000 µM (≈ 360 µg/mL). In addition, in data set [7], the “log P” value was −0.78. Further, the pKa in data set [8] is 10.05.

Regarding `Cn1c(=O)c2[nH]cnc2n(C)c1=O` [TPH, theophylline], the “effect of IBP on saturation concentration of the XAT derivative” value in data set [3] (equimolar mixtures with IBP, effect of DCF greater than that of IBP) is “increased”. The “distribution volume Vd” value in data set [1] (TPH, no reference given) is given as 0.5 L/kg. The “therapeutic range in the blood” value in data set [1] (narrow therapeutic range) was 0.06 to 0.11 mmol/L. Besides, in data set [6], the water solubility is 40000 µM (≈ 7210 µg/mL). Further, the “log P” value in data set [7] was 0.00.

As for `O=c1[nH]c(=O)c2[nH]cnc2[nH]1` [XAT, xanthine], the “increase of XAT-derivative solubility by IBP and DCF (NSAIDs)” value in data set [3] stood at 2 fold.
